Data set [1] relates to heparin activity. As to conditions: Rabenstein and Wang 2006; cited from earlier work.
Data set [2] is described as follows: Heparin affinity chromatography (HAC), NaCl gradient elution. As to conditions: pH 7.2, 50 mM sodium phosphate, gradient 0 to 1 M NaCl over 60 min, 0.65 mL/min. In kind it is binding. On the procedure:
The relative affinities of the peptoids in Table 2 for heparin were determined by heparin affinity chromatography (“HAC”). Peptoid solutions, typically 0.2 mM, were eluted by gradient elution; mobile phase A consisted of pH 7.2, 50 mM sodium phosphate buffer and mobile phase B consisted of the same buffer but with 1 M NaCl added. The flow rate was 0.65 mL/min and the gradient began with 100% mobile phase A and 0% mobile phase B, and ended at 60 min with 0% mobile phase A and 100% B although most of the peptoid runs were complete within 30 min or less.

Data set [3] deals with proteases. The following applies: physiological conditions; cited from earlier work.

Take “Ac-SRGKAKVKAKVKDQTK-NH2 (not fully specified; printed as Ac-SRGKAKVKAKVKDQTK-NH2) [L-HIPAP]”: in data set [1], the neutralizing heparin activity result is “equally effective”. The substance “H-[N(Orn)-N(All)-N(Spe)]3-NH2 [s9merAll]” had an HAC r.t. in data set [2] of 20 ± 2.0 min. On to Ac-SRGKAKVKAKVKDQTK-NH2 [L-HIPAP], for which the “stability / degradation by proteases” value in data set [3] is listed as “more susceptible to degradation by proteases”. For the substance Ac-SRGKAKVKAKVKDQTK-NH2 [D-HIPAP], the “stability / degradation by proteases” value in data set [3] was “more stable than L-HIPAP”.
